Measurements: patent US8110570B2, “Modulators of acetyl-coenzyme A carboxylase and methods of use thereof” (Cropsolution, Inc., priority 2008, dated 2012)

Tests used:
[1] = tested on: MDA-MB-231 human breast cancer cells; test: MTT Cell Proliferation Assay; type: cell-based; conditions: 72 hours, read-out: Percent of Control MDA-MB-231
Procedure, shortened: (§1)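 Cells seeded and grown 24 h at 37 °C, 5% CO2, then exposed to compound for 72 h. Viability read by MTT reduction (4 h) after overnight lysis/solubilization. Results expressed as percent of control versus compound concentration.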

[2] = tested on: PC-3 human prostate cancer cells; test: MTT Cell Proliferation Assay; type: cell-based; conditions: 72 hours, read-out: Percent of Control PC-3
Procedure, shortened: as §1

[3] = tested on: A2780 human ovary cancer cells; test: MTT Cell Proliferation Assay; type: cell-based; conditions: 72 hours, read-out: Percent of Control A2780
Procedure, shortened: as §1

[4] = tested on: HCT-116 human colon cancer cells; test: MTT Cell Proliferation Assay; type: cell-based; conditions: 72 hours, read-out: Percent of Control HCT-116
Procedure, shortened: as §1

hACC1 = molecular target: T1, hACC1 (Homo sapiens, UniProt Q13085); test: [14C]bicarbonate incorporation assay, overall ACC activity; type: biochemical; conditions: recombinant hACC1, overall ACC activity
T1 construct: PCR primers were designed for full-length hACC1 and hACC2 using GenBank submissions AY237919 and AJ575592, respectively; His tag (C); made in house; host or cells: baculovirus, Sf9 insect cells
Procedure, shortened: (§2)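 His-tagged full-length hACC1 or hACC2 (residues 1-148 deleted, Met-Gly added), expressed in sf9 cells with biotin and purified, were assayed by [14C]bicarbonate incorporation into acetyl-CoA. Reactions at pH 7.4 with 2 mM acetyl-CoA, 12 mM NaHCO3 and 1% DMSO were started with 2 mM ATP and run 10 min at 37° C. Acid-stable label was counted and IC50 obtained from dose-response fits.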

hACC2 = molecular target: T2, hACC2 (Homo sapiens, UniProt O00763); test: as above; type: biochemical; conditions: recombinant hACC2, overall ACC activity
T2 construct: delete amino acids 1-148 and add Met-Gly in front of Lys149 in the final product; His tag (C); made in house; host or cells: baculovirus, Sf9 insect cells
T2 sequence (O00763 149-2458 limits assumed): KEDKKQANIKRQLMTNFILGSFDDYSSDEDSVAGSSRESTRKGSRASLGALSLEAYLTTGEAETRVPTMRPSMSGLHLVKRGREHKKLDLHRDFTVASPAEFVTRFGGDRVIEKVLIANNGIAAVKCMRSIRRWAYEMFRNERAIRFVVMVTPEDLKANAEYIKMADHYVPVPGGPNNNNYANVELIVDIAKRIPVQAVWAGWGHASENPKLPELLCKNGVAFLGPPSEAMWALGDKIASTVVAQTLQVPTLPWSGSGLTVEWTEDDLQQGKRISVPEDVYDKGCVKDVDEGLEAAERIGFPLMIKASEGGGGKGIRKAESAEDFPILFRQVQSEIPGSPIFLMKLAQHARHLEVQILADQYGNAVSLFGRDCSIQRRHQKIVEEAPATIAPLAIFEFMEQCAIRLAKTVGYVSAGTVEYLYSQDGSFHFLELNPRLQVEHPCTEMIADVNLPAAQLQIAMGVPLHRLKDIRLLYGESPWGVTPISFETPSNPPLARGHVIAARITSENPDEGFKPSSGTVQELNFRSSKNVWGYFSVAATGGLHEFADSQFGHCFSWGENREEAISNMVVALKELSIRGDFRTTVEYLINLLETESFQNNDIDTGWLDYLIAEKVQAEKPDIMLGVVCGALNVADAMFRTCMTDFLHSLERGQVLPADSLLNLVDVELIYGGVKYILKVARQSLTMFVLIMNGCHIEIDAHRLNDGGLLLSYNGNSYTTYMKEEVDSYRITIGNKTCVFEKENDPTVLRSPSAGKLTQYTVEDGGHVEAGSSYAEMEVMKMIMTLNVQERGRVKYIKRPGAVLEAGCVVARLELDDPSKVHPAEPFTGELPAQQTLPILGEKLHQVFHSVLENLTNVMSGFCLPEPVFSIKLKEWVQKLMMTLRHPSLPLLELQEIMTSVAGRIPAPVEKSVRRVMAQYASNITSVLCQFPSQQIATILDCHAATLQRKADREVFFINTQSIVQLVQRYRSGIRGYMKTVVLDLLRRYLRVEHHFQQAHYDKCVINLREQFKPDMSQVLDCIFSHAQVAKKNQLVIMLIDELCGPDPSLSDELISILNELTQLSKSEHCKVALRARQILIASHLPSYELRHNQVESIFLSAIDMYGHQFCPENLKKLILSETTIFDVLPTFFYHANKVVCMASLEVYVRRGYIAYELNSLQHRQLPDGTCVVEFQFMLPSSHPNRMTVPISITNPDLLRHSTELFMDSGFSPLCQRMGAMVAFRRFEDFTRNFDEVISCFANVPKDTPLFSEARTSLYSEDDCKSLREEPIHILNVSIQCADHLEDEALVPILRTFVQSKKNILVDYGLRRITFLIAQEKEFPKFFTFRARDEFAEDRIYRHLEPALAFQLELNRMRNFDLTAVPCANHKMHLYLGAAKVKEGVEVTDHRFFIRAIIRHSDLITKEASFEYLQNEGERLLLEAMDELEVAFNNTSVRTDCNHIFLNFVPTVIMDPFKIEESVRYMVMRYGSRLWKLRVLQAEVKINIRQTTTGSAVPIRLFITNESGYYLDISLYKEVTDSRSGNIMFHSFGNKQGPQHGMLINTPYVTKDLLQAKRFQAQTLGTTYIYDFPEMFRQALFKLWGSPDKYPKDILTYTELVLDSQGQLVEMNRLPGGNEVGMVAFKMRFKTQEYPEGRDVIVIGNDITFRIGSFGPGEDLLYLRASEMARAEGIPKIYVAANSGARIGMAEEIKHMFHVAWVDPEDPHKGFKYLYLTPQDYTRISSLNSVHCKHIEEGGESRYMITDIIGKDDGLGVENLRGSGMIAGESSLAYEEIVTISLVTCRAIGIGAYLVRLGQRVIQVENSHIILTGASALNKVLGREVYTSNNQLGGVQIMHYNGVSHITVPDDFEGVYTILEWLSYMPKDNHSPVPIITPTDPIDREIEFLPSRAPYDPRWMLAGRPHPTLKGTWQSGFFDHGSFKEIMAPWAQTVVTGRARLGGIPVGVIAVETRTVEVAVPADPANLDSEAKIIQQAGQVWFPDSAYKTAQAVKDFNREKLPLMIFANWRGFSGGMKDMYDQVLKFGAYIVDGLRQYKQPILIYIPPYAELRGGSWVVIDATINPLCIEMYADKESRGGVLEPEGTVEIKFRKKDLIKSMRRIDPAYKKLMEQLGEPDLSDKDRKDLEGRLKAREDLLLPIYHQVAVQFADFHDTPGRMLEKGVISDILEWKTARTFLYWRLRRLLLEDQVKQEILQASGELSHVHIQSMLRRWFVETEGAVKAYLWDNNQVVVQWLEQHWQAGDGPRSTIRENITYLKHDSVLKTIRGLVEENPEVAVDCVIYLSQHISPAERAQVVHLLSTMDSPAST
Procedure, shortened: as §2

Question: What does the source list for `COc1ccc2c(c1)C(=O)NC1(CCN(C(=O)c3cc(OC)c4cccc(OC)c4n3)CC1)O2` [Compound 150]?
Answer: activity at 3.3 µM [1]: 76.1%; activity at 10 µM [1]: 50.2%; activity at 3.3 µM [2]: 60.7%; activity at 10 µM [2]: 47.7%; activity at 3.3 µM [3]: 86.5%; activity at 10 µM [3]: 57.6%; activity at 3.3 µM [4]: 70.2%; activity at 10 µM [4]: 59.4%; IC50 (hACC1): 26 nM; IC50 (hACC2): 23 nM

Question: `COc1cc(C(=O)N2CCC3(CC2)NC(=O)c2cc(Br)ccc2O3)nc2c(OC)cccc12` [Compound 2, 6-Bromo-1′-[(4,8-dimethoxyquinoline-2-yl)carbonyl]spiro[2H-1,3-benzoxazine-2,4′-piperidine]-4(3H)-one] was tested. Which IC50 (hACC1) did it give?
Answer: Its IC50 is 88 nM.

Question: And the IC50 (hACC2)?
Answer: The IC50 was 51 nM.

Question: Which results are given for `COc1cc(C(=O)N2CCC3(CC2)NC(=O)c2cc(OC(C)C)ccc2O3)nc2c(OC)cccc12` [Compound 169]?
Answer: activity at 3.3 µM [1]: 81.4%; activity at 10 µM [1]: 47.8%; activity at 3.3 µM [2]: 54.7%; activity at 10 µM [2]: 52.1%; activity at 3.3 µM [3]: 80.5%; activity at 10 µM [3]: 56.5%; activity at 3.3 µM [4]: 57.2%; activity at 10 µM [4]: 45%; IC50 (hACC1): 7.5 nM; IC50 (hACC2): 7.4 nM
